Literature values in paper PMC10116525 (ACS Omega, 2023).
Where two headings read alike, the source gives them in different places.

[1] = Lys^B29-lipidated insulin analogues

Substance | Duration of action [1] | Duration of action (precipitation in the subcutaneous space)
degludec | ≤ 42 h | 
detemir | up to 24 h | 
insulin glargine |  | up to 24 h
